Data set [1] in a line: ASTX727 Phase 2 randomized cross over dose confirmation: plasma decitabine 5-day AUC, oral vs IV. In kind it is in vivo. The settings on record: human, read-out: Decitabine 5-day AUC0-t, IV Geo. LSM.
Data set [2] can be described thus: ASTX727 Phase 1 dose escalation study: plasma decitabine pharmacokinetics (AUC). The following applies: for AUC(0-t): human, plasma. In kind it is in vivo, human. On the procedure:
The ASTX727 Phase 1 study was a dose escalation designed to establish the recommended doses of cedazuridine and decitabine likely to achieve AUC equivalence with standard dose decitabine IV (decitabine 20 mg/m^2 IV). FIG. 1 provides an overview of the study design. In Cycle 1, each patient received a cohort-defined dose of oral decitabine on day −3, a 1-h intravenous infusion of decitabine 20 mg/m^2 on day 1, and cohort-defined doses of oral decitabine plus cedazuridine on days 2-5. In Cycles 2 and beyond, the oral decitabine and cedazuridine were given on days 1-5. The dose of cedazuridine was escalated first and decitabine was escalated once CDA inhibition by cedazuridine approached the maximum effect. Only one drug was escalated per cohort. Fixed doses were given without adjustment for bodyweight or body surface area. Days −3, 1, 2, and 5 for decitabine included a full-day pharmacokinetic analysis. The starting dose was 20 mg for oral decitabine and 40 mg for cedazuridine (a human equivalent dose with approximately 100 times greater safety margin than the no-observed adverse effect level in cynomolgus monkeys). […] Dose-limiting toxicity was defined as a grade 4 hematologic toxicity or grade 3 lasting more than 14 days and unrelated to the underlying disease. […] Dose escalation for patients who previously received a lower dose was allowed at the discretion of the investigator if the patient had tolerated the originally assigned doses.
The pharmacokinetic profile of decitabine was characterized through analysis of plasma treated with EDTA (edetic acid) by validated liquid chromatography-tandem mass spectrometry, with tetrahydrouridine (Santa Cruz Biotechnology, Dallas, TX) for stabilization and with a linear assay range of 0.5-100 ng/mL for decitabine. Serial plasma samples (from before dose administration until 24 h after administration) were collected on days −3, 1, 2, and 5 (also immediately before dose administration on days 3 and 4) during the first cycle. Specifically, pharmacokinetic samples were obtained before dose administration and 0.25 h, 0.5 h, 1.0 h (for IV only 1.083 h), 1.5 h, 2 h, 3 h, 4 h, 6 h, 8 h, and 24 h after the dose.

The subject of data set [3] is MDS and CMML patients. Nature of the data set: Phase 2 safety: related adverse events Grade ≥3 in ≥5% of patients. In kind it is in vivo, human. The following applies: Phase 2, Cycle 1 or 2; IV DEC N = 75, ASTX727 N = 78. On the procedure:
The ASTX727 Phase 2 study was a randomized cross over design of decitabine 20 mg/m^2 IV daily (for 5 days) vs. oral decitabine/cedazuridine once daily (for 5 days) in Cycle 1 with patients crossing over to the other drug in Cycle 2 (See FIG. 3). From Cycle 3 onward, all patients continued on oral decitabine/cedazuridine once daily (for 5 days), each cycle every 28 days, until progression.
Changes in DNA methylation after treatment were expressed as relative change (%), calculated as: 100×([methylation on a given post-treatment day]−[baseline methylation]. Adverse event assessments through physical examinations and laboratory monitoring (haematology, metabolic profile, and liver enzymes) were done before treatment on day 1 of each cycle (weekly for haematology in the first two cycles). While on treatment, patients were assessed for adverse events and clinical response, including haematology, metabolic profile, liver enzymes, directed physical examinations, vital signs, transfusion records, and dosing records. Once off treatment, patients were followed up for survival and transformation to acute myeloid leukemia. Dose reduction or delays were permitted at the investigators' discretion to allow for recovery from drug-related myelosuppression.

Data set [4] is described as follows: Phase 3 randomized cross over study: 5-day decitabine AUC equivalence, oral ASTX727 vs IV decitabine. In kind it is in vivo. The settings on record: human, plasma, 20 mg/m2; Phase 3 primary analysis, paired population N=123; IV decitabine 20 mg/m^2; read-out: Decitabine 5-day AUC0-24, IV DEC Geo. LSM. The source says:
The Primary Endpoint PK Analysis Set is used to calculate decitabine 5-day cumulative AUC0-t exposures after administration of the solid dosage form. The following assumptions are used: • 1) Steady state is reached on Day 2 of dosing with the solid dosage form; • 2) Based on steady state achievement on Day 2, decitabine AUC0-t from Day 2 and Day 5 is representative of daily AUC0-t on Days 2 through Day 5 in a putative 5-day dosing with the solid dosage form.
Therefore, to calculate total 5-day oral decitabine AUC0-t exposures using PK data from 3 days sequential PK sampling, Day 1 AUC0-t (first solid dosage form dose) is added to (Day 2 AUC0-t+Day 5 AUC0-t)×2. If AUC0-t on Day 2 is not available, it is replaced by AUC0-t on Day 5; the converse is also true.
If AUC0-t on Day 1 is not available, it is replaced by AUC0-t on Day 5; the converse is also true. Note that t=24 hrs, so AUC0-t is AUC0-24.
Phase 3 was a randomized cross over design where MDS and CMML patients eligible to receive decitabine were randomized to Sequence A where they received ASTX727 in Cycle 1 then IV decitabine in Cycle 2, or Sequence B with the reverse order. All patients received ASTX727 from Cycle 3 onwards to assess long term efficacy and safety. 118 evaluable patients were needed to show AUC equivalence between oral and IV administrations. […]

Data on 1 compound can be found in patent publication US11963971B2, “Combination decitabine and cedazuridine solid oral dosage forms” (Otsuka Pharmaceutical Co., Ltd., priority 2020, dated 2024).

Molecules are shown by their SMILES. Marks after values point to notes of the source that are not given here.

As for `Nc1ncn([C@H]2C[C@H](O)[C@@H](CO)O2)c(=O)n1` [IV DEC, 5-aza-2′-deoxycytidine], the AUC(0-t) is 745 ng·h/mL in data set [1] (20 mg/m^2, Phase 2 FDC tablet stage, N=24, 20 mg/m^2 IV infusion (1 h) of decitabine); 803 ng·h/mL in data set [1] (20 mg/m^2, Phase 2 capsule stage, N=40, 20 mg/m^2 IV infusion (1 h) of decitabine); 138 ng·h/mL in data set [2] (iv, 20 mg/m2, Cohort 1, N=5 (extreme outlier excluded), IV decitabine 20 mg/m^2, day 1, read-out: AUC0-t by day, IV D1, Geometric Mean (gCV %)); 170 ng·h/mL in data set [2] (iv, 20 mg/m2, Cohort 2, N=6, IV decitabine 20 mg/m^2, day 1, read-out: AUC0-t by day, IV D1, Geometric Mean (gCV %)); 192 ng·h/mL in data set [2] (iv, 20 mg/m2, Cohort 3, N=6, IV decitabine 20 mg/m^2, day 1, read-out: AUC0-t by day, IV D1, Geometric Mean (gCV %)); 153 ng·h/mL in data set [2] (iv, 20 mg/m2, Cohort 4, N=6, IV decitabine 20 mg/m^2, day 1, read-out: AUC0-t by day, IV D1, Geometric Mean (gCV %)). In addition, the AUC(0-t) in data set [2] (iv, 20 mg/m2, Cohort 5, IV decitabine 20 mg/m^2, day 1, IV data from 18 patients (one extreme outlier excluded), read-out: AUC0-t by day, IV D1, Geometric Mean (gCV %)) turned out to be 166 ng·h/mL; in data set [2] (iv, 20 mg/m^2, Cohort 1, N=6, IV decitabine 20 mg/m^2 1-h infusion, day 1, read-out: AUC0-t by day, IV D1, Geometric Mean (gCV %)) it was 159 ng·h/mL; in data set [2] (po, 20 mg, Cohort 1, N=5 (extreme outlier excluded), oral DEC 20 mg alone, day −3, read-out: AUC0-t by day, D −3 (DEC alone), Geometric Mean (gCV %)), 7.9 ng·h/mL; in data set [2] (po, 20 mg, Cohort 1, N=6, oral DEC 20 mg alone, day −3, plasma decitabine, read-out: AUC0-t by day, D −3 (DEC alone), Geometric Mean (gCV %)), 10.7 ng·h/mL; in data set [2] (po, 20 mg, Cohort 2, N=6, oral DEC 20 mg alone, day −3, read-out: AUC0-t by day, D −3 (DEC alone), Geometric Mean (gCV %)), 7.49 ng·h/mL; in data set [2] (po, 20 mg, Cohort 3, N=6, oral DEC 20 mg alone, day −3, read-out: AUC0-t by day, D −3 (DEC alone), Geometric Mean (gCV %)), 7.9 ng·h/mL. Further, the AUC(0-t) amounted to 15.3 ng·h/mL in data set [2] (po, 30 mg, Cohort 5, N=19, oral DEC 30 mg alone, day −3, read-out: AUC0-t by day, D −3 (DEC alone), Geometric Mean (gCV %)); 29.8 ng·h/mL in data set [2] (po, 40 mg, Cohort 4, N=6, oral DEC 40 mg alone, day −3, read-out: AUC0-t by day, D −3 (DEC alone), Geometric Mean (gCV %)); 865 ng·h/mL in data set [4]. Moreover, the “5-days Total AUC0-t, IV (N = 41), geometric mean” value in data set [2] (IV decitabine 20 mg/m^2, total IV population of all cohorts (N = 41)) was 821^d h · ng/ml. The “Anemia, related AE Grade ≥3” value in data set [3] is 4 (5.3%) n (%). Also, the “Any Grade ≥3 Related AEs” value in data set [3] is given as 24 (32%) n (%). The “Febrile Neutropenia, related AE Grade ≥3” value in data set [3] is on record as 4 (5.3%) n (%). For the same compound, in data set [3], the “Leukopenia, related AE Grade ≥3” value is reported as 6 (8.0%) n (%). In data set [3], the “Neutropenia, related AE Grade ≥3” value is 16 (21.3%) n (%). For the same compound, in data set [3], the “Thrombocytopenia, related AE Grade ≥3” value is 11 (14.7%) n (%).
